# Test results: ChEMBL document CHEMBL1139799, “Identification of novel chemical inhibitors for ubiquitin C-terminal hydrolase-L3 by virtual screening” (Bioorg Med Chem, 2007)
# The source made the active and inactive calls. No cut-off for these calls is given here.
# Experiments:
# [1] = target: T1, Ubiquitin carboxyl-terminal hydrolase isozyme L3 (Homo sapiens) (UniProt P15374); experiment: Inhibition of human UCH-L3 hydrolysis activity at 386 uM
# T1 sequence (whole entry): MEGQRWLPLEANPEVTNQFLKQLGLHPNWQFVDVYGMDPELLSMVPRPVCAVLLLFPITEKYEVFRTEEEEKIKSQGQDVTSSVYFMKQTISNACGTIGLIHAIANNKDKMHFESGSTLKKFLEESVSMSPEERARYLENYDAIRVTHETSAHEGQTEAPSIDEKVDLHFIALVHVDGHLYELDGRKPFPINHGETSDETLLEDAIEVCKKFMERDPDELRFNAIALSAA
# [2] = target: T1, Ubiquitin carboxyl-terminal hydrolase isozyme L3 (Homo sapiens); experiment: Inhibition of human UCH-L3 hydrolysis activity at 334 uM
# [3] = target: T2, Ubiquitin carboxyl-terminal hydrolase isozyme L3 (Homo sapiens, UniProt P15374); experiment: Inhibition of human UCH-L3 hydrolysis activity
# T2 sequence (P15374 whole entry): T1 sequence (whole entry)
# [4] = target: T1, Ubiquitin carboxyl-terminal hydrolase isozyme L3 (Homo sapiens); experiment: Inhibition of human UCH-L3 hydrolysis activity at 380 uM relative to control; design: scale not given: the % may be the effect or the level left
# [5] = target: T1, Ubiquitin carboxyl-terminal hydrolase isozyme L3 (Homo sapiens); experiment: Inhibition of human UCH-L3 hydrolysis activity at 375 uM relative to control; design: scale not given: the % may be the effect or the level left
# [6] = target: T1, Ubiquitin carboxyl-terminal hydrolase isozyme L3 (Homo sapiens); experiment: Inhibition of human UCH-L3 hydrolysis activity at 387 uM
# [7] = target: T1, Ubiquitin carboxyl-terminal hydrolase isozyme L3 (Homo sapiens); experiment: Inhibition of human UCH-L3 hydrolysis activity at 350 uM relative to control; design: scale not given: the % may be the effect or the level left
# [8] = target: T1, Ubiquitin carboxyl-terminal hydrolase isozyme L3 (Homo sapiens); experiment: Inhibition of human UCH-L3 hydrolysis activity at 331 uM
compound,measurement,setting,value
COc1cccc(N(CC(=O)NC2CCCC2)S(=O)(=O)c2ccccc2)c1,Activity,[1],inactive
COc1ccc(N(CC(=O)NC2CC2)S(=O)(=O)c2ccc(C)cc2)cc1,Activity,[2],inactive
Cc1ccc(C(=O)C2=C(O)C(=O)N(Cc3ccccc3)C2c2cccnc2)o1 (stereo not given),IC50,[3],103 µM
Cn1c(SCc2nc(-c3cccs3)no2)nnc1-c1c[nH]c2ccccc12,Activity,[4],16.2%
COc1ccc(C2C(C(=O)c3cccs3)=C(O)C(=O)N2c2nncs2)cc1 (stereo not given),IC50,[3],154 µM
same,Activity,[5],76.5%
Nc1nc(CSc2nnc(-c3ccco3)n2-c2ccccc2)cs1,Activity,[6],inactive
Cc1ccc(C(=O)C2=C(O)C(=O)N(Cc3cccnc3)C2c2ccc(F)cc2)o1 (stereo not given),IC50,[3],123 µM
same,Activity,[7],76.8%
CCS(=O)(=O)Nc1cccc(C2=NN(C(C)=O)C(c3cccs3)C2)c1 (stereo not given),Activity,[8],inactive
